Source: publication PMC10850145, “Hormonal steroids induce multidrug resistance and stress response genes in Neisseria gonorrhoeae by binding to MtrR” (Nature Communications, 2024)
pKd: −log10 of the molar value. “And” between values parts separate entries of the source, which are not always exact repeats. Equal values may be shown once. Read-outs that look alike come from different tables or passages of the source.

Experiments:
[1] = target: T1, MtrR binding to rpoH operator (27mer) (Neisseria gonorrhoeae, UniProt P39897); test: Fluorescence polarization based DNA binding assay, rpoH operator; conditions: rpoH 27mer + 125 µM steroid
T1 construct: Hexa-histidine tag with TEV protease cleavage site (N, cleaved yes); made in house; host or cells: E. coli Rosetta Gami B(DE3) pLysS
T1 sequence (P39897 whole entry): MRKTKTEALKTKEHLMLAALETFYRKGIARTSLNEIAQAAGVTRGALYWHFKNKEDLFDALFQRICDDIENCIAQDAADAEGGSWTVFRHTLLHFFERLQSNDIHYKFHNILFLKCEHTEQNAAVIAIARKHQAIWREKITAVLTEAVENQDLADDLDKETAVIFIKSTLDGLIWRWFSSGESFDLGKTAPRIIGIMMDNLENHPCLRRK
Experimental: Fluorescence polarization based-DNA binding data were collected using a Panvera Beacon 2000 fluorescence polarization system (Invitrogen) and analyzed with Prism (Graphpad Software 9, 10). Purified MtrR was buffer exchanged into “DNA” binding buffer (150 mM NaCl, 20 mM Tris-HCl pH 7.5, 2.5% glycerol, 1 mM TCEP). […] The reported oligoduplexes containing the rpoH and mtrCDE binding site differ in lengths, 27mer and 21mer, respectively[17],[21]. […] BSA and dI-dC are included as carriers and to control for nonspecific DNA binding. Samples were excited at 490 nm and polarized emissions measured at 530 nm. Controls were run with no protein (DNA ± methanol, hormonal steroids) to ensure that millipolarization values were not affected by experimental conditions alone. The binding affinity of protein for DNA was determined using the following equation: P = Pf + (Pb – Pf) [M] / (Kd + [M]) where P is the measured polarization, Pf is the polarization of free DNA, Pb is the polarization of the completely bound DNA, Kd is the equilibrium dissociation constant, and M is the concentration of protein. Pb and Kd were determined by nonlinear least-squares analysis. At least three independent experimental measurements were averaged for each reported binding constant.

[2] = tested on: FA19-rpoH-lacZ; test: Gonococcal growth in liquid culture (GC broth) with hormones (Fig S7)
[3] = target: T2, MtrR D171A (Neisseria gonorrhoeae, UniProt P39897, D171A); test: biochemical; assay type: binding; conditions: ITC
T2 construct: Hexa-histidine tag with TEV protease cleavage site (N, cleaved yes); made in house; host or cells: E. coli Rosetta Gami B(DE3) pLysS
T2 sequence (P39897 whole entry D171A): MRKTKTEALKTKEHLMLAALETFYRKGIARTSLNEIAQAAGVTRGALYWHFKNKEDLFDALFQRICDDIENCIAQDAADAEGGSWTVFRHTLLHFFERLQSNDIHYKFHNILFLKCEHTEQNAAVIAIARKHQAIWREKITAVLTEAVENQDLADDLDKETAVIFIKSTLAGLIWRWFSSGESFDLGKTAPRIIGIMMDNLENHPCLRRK

[4] = tested on: gonococcal strain FA19; test: MIC of steroidal hormones on GC agar, strain FA19; assay type: cell-based; conditions: Neisseria gonorrhoeae
Experimental: To determine the minimal inhibitory concentrations (MICs) by the steroidal hormones and their effect on antimicrobial susceptibility, 5 x 10^5 CFU and 1:5 serial dilutions of gonococcal strains were spotted on GC agar plates containing different concentrations of antibiotics and/or hormones as indicated. Antimicrobial susceptibility was assessed after 24 h incubation.
Table S1. Steroidal hormones are substrates of the MtrCDE efflux pump
Progesterone Testosterone
*Minimal inhibition concentration is defined by the lowest concentration at which visible growth is […]

[5] = target: T3, MtrR (Neisseria gonorrhoeae, UniProt P39897); test: Isothermal titration calorimetry, ligand binding to MtrR WT; conditions: ITC
T3 construct: Hexa-histidine tag with TEV protease cleavage site (N, cleaved yes); made in house; host or cells: E. coli Rosetta Gami B(DE3) pLysS
T3 sequence (P39897 whole entry): as the sequence (P39897 whole entry) above

C[C@]12CC[C@@H]3c4ccc(O)cc4CC[C@H]3[C@@H]1CC[C@@H]2O [β-Estradiol, β-estradiol]
fluorescence polarization, MtrR titration ([1]; MtrR WT dimer 0.00 nM): 0.00 mP
fluorescence polarization, MtrR titration ([1]; MtrR WT dimer 25.90 nM): 3.74 mP and 5.72 mP and 6.73 mP
fluorescence polarization, MtrR titration ([1]; MtrR WT dimer 35.50 nM): 6.01 mP and 7.12 mP and 8.13 mP
fluorescence polarization, MtrR titration ([1]; MtrR WT dimer 54.52 nM): 8.01 mP and 9.55 mP and 10.56 mP
fluorescence polarization, MtrR titration ([1]; MtrR WT dimer 73.35 nM): 11.39 mP and 12.36 mP
fluorescence polarization, MtrR titration ([1]; MtrR WT dimer 110.67 nM): 12.31 mP and 14.15 mP and 15.93 mP
fluorescence polarization, MtrR titration ([1]; MtrR WT dimer 147.65 nM): 15.17 mP and 15.72 mP and 17.43 mP
fluorescence polarization, MtrR titration ([1]; MtrR WT dimer 220.59 nM): 18.17 mP and 19.19 mP and 21.36 mP
fluorescence polarization, MtrR titration ([1]; MtrR WT dimer 292.55 nM): 20.01 mP and 21.72 mP and 23.36 mP
fluorescence polarization, MtrR titration ([1]; MtrR WT dimer 363.86 nM): 21.41 mP and 22.99 mP and 26.06 mP
fluorescence polarization, MtrR titration ([1]; MtrR WT dimer 434.54 nM): 23.51 mP and 24.99 mP and 26.53 mP
fluorescence polarization, MtrR titration ([1]; MtrR WT dimer 504.61 nM): 25.37 mP and 27.45 mP and 28.59 mP
fluorescence polarization, MtrR titration ([1]; MtrR WT dimer 574.07 nM): 29.37 mP and 27.75 mP and 29.19 mP
growth curve reading after BLANKING ([2]; 0 hr, 0.1 µM): 0.013
growth curve reading, raw replicates ([2]; 0 hr, 0.1 µM): 0.046
growth curve reading after BLANKING ([2]; 0 hr, 1 µM): 0.013
growth curve reading, raw replicates ([2]; 0 hr, 1 µM): 0.046
growth curve reading after BLANKING ([2]; 0 hr, 10 µM): 0.013
growth curve reading, raw replicates ([2]; 0 hr, 10 µM): 0.046
growth curve reading after BLANKING ([2]; 0 hr, 25 µM): 0.013
growth curve reading, raw replicates ([2]; 0 hr, 25 µM): 0.046
growth curve reading after BLANKING ([2]; 0 hr, 50 µM): 0.013
growth curve reading, raw replicates ([2]; 0 hr, 50 µM): 0.046
growth curve reading after BLANKING ([2]; 1.18 hr, 0.1 µM): 0.020
growth curve reading, raw replicates ([2]; 1.18 hr, 0.1 µM): 0.052 and 0.053
growth curve reading after BLANKING ([2]; 1.18 hr, 1 µM): 0.020
growth curve reading, raw replicates ([2]; 1.18 hr, 1 µM): 0.054 and 0.052
growth curve reading after BLANKING ([2]; 1.18 hr, 10 µM): 0.020
growth curve reading, raw replicates ([2]; 1.18 hr, 10 µM): 0.053 and 0.054
growth curve reading after BLANKING ([2]; 1.18 hr, 25 µM): 0.021
growth curve reading, raw replicates ([2]; 1.18 hr, 25 µM): 0.053 and 0.056
growth curve reading after BLANKING ([2]; 1.18 hr, 50 µM): 0.019
growth curve reading, raw replicates ([2]; 1.18 hr, 50 µM): 0.052 and 0.053
growth curve reading after BLANKING ([2]; 2 hr, 0.1 µM): 0.030
growth curve reading, raw replicates ([2]; 2 hr, 0.1 µM): 0.062 and 0.065
growth curve reading after BLANKING ([2]; 2 hr, 1 µM): 0.030
growth curve reading, raw replicates ([2]; 2 hr, 1 µM): 0.063
growth curve reading after BLANKING ([2]; 2 hr, 10 µM): 0.031
growth curve reading, raw replicates ([2]; 2 hr, 10 µM): 0.063 and 0.065
growth curve reading after BLANKING ([2]; 2 hr, 25 µM): 0.030
growth curve reading, raw replicates ([2]; 2 hr, 25 µM): 0.062 and 0.064
growth curve reading after BLANKING ([2]; 2 hr, 50 µM): 0.030
growth curve reading, raw replicates ([2]; 2 hr, 50 µM): 0.063
growth curve reading after BLANKING ([2]; 3 hr, 0.1 µM): 0.041
growth curve reading, raw replicates ([2]; 3 hr, 0.1 µM): 0.076 and 0.072
growth curve reading after BLANKING ([2]; 3 hr, 1 µM): 0.041
growth curve reading, raw replicates ([2]; 3 hr, 1 µM): 0.074 and 0.073
growth curve reading after BLANKING ([2]; 3 hr, 10 µM): 0.043
growth curve reading, raw replicates ([2]; 3 hr, 10 µM): 0.079 and 0.074
growth curve reading after BLANKING ([2]; 3 hr, 25 µM): 0.044
growth curve reading, raw replicates ([2]; 3 hr, 25 µM): 0.078 and 0.075
growth curve reading after BLANKING ([2]; 3 hr, 50 µM): 0.040
growth curve reading, raw replicates ([2]; 3 hr, 50 µM): 0.074 and 0.072
growth curve reading after BLANKING ([2]; 4 hr, 0.1 µM): 0.055
growth curve reading, raw replicates ([2]; 4 hr, 0.1 µM): 0.087 and 0.090
growth curve reading after BLANKING ([2]; 4 hr, 1 µM): 0.056
growth curve reading, raw replicates ([2]; 4 hr, 1 µM): 0.089 and 0.088
growth curve reading after BLANKING ([2]; 4 hr, 10 µM): 0.057
growth curve reading, raw replicates ([2]; 4 hr, 10 µM): 0.088 and 0.092
growth curve reading after BLANKING ([2]; 4 hr, 25 µM): 0.060
growth curve reading, raw replicates ([2]; 4 hr, 25 µM): 0.093
growth curve reading after BLANKING ([2]; 4 hr, 50 µM): 0.052
growth curve reading, raw replicates ([2]; 4 hr, 50 µM): 0.082 and 0.088
growth curve reading after BLANKING ([2]; 5 hr, 0.1 µM): 0.072
growth curve reading, raw replicates ([2]; 5 hr, 0.1 µM): 0.104 and 0.106
growth curve reading after BLANKING ([2]; 5 hr, 1 µM): 0.072
growth curve reading, raw replicates ([2]; 5 hr, 1 µM): 0.105
growth curve reading after BLANKING ([2]; 5 hr, 10 µM): 0.071
growth curve reading, raw replicates ([2]; 5 hr, 10 µM): 0.103 and 0.105
growth curve reading after BLANKING ([2]; 5 hr, 25 µM): 0.076
growth curve reading, raw replicates ([2]; 5 hr, 25 µM): 0.113 and 0.106
growth curve reading after BLANKING ([2]; 5 hr, 50 µM): 0.065
growth curve reading, raw replicates ([2]; 5 hr, 50 µM): 0.094 and 0.103
growth curve reading after BLANKING ([2]; 5.95 hr, 0.1 µM): 0.090
growth curve reading, raw replicates ([2]; 5.95 hr, 0.1 µM): 0.124 and 0.123
growth curve reading after BLANKING ([2]; 5.95 hr, 1 µM): 0.093
growth curve reading, raw replicates ([2]; 5.95 hr, 1 µM): 0.126 and 0.125
growth curve reading after BLANKING ([2]; 5.95 hr, 10 µM): 0.086
growth curve reading, raw replicates ([2]; 5.95 hr, 10 µM): 0.118 and 0.119
growth curve reading, raw replicates ([2]; 5.95 hr, 25 µM): 0.134 and 0.124
growth curve reading after BLANKING ([2]; 5.95 hr, 50 µM): 0.083
growth curve reading, raw replicates ([2]; 5.95 hr, 50 µM): 0.110 and 0.122
growth curve reading, raw replicates ([2]; 6.82 hr, 0.1 µM): 0.137 and 0.133
growth curve reading, raw replicates ([2]; 6.82 hr, 1 µM): 0.143 and 0.139
growth curve reading after BLANKING ([2]; 6.82 hr, 10 µM): 0.092
growth curve reading, raw replicates ([2]; 6.82 hr, 10 µM): 0.127 and 0.123
growth curve reading after BLANKING ([2]; 6.82 hr, 25 µM): 0.114
growth curve reading, raw replicates ([2]; 6.82 hr, 25 µM): 0.156 and 0.139
growth curve reading, raw replicates ([2]; 6.82 hr, 50 µM): 0.124 and 0.136
binding to MtrR D171A [3]: no observable binding
MIC ([4]; FA19, 24 h): > 1180 µM
MIC ([4]; strain FA19, GC agar, read-out: MIC): > 320 µg/mL
binding stoichiometry N (ligand per MtrR) [5]: ~ 1
pKd ([5]; 25 °C, 1% MeOH, read-out: equilibrium dissociation constant (Kd), MtrR WT): 5.78 and ~5.78
binding stoichiometry N (ligand per MtrR) ([5]; listed as EST): one molecule of steroid per MtrR monomer
